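Growth conditions: 96-well plates. Treatment: test compound, 48 hours, 5 concentrations. Analysis: linear interpolation between bracketing concentrations; unreached endpoints set to highest concentration. GI50 is the concentration that inhibits growth by half. TGI denotes the concentration required for complete inhibition of growth.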
Tests used:
Assay in all cases: NCI tumour cell line growth inhibition, 48 h
[1] = system: OVCAR-8 ovarian
[2] = system: OVCAR-3 ovarian
[3] = system: HOP-62 NSCLC
[4] = system: SK-MEL-28 melanoma
[5] = system: LOX IMVI melanoma
[6] = system: OVCAR-4 ovarian
[7] = system: SK-OV-3 ovarian
[8] = system: HCT-15 colon
[9] = system: 786-0 renal
[10] = system: UO-31 renal
[11] = system: SK-MEL-5 melanoma
[12] = system: RXF 393 renal
[13] = system: NCI-H522 lung
[14] = system: MOLT-4 leukemia
[15] = system: MDA-MB-435
[16] = system: NCI-H23 lung
[17] = system: COLO 205 colon
[18] = system: SW-620 colon
[19] = system: HS 578T breast
[20] = system: U251 CNS
[21] = system: NCI/ADR-RES ovarian
[22] = system: DU-145 prostate
[23] = system: CCRF-CEM leukemia
[24] = system: TK-10 renal
[25] = system: T-47D breast
[26] = system: RPMI-8226 leukemia
[27] = system: CAKI-1 renal
[28] = system: NCI-H226 lung
[29] = system: HCT-116 colon
[30] = system: PC-3 prostate
[31] = system: MALME-3M melanoma
[32] = system: SNB-75 CNS
[33] = system: SF-539 CNS
[34] = system: A549 NSCLC
[35] = system: SF-268 CNS
[36] = system: M14 melanoma
[37] = system: ACHN renal
[38] = system: HOP-92 NSCLC
[39] = system: NCI-H460 lung
[40] = system: MDA-MB-231 breast
[41] = system: UACC-62 melanoma
[42] = system: HL-60(TB) leukemia
[43] = system: OVCAR-5 ovarian
[44] = system: UACC-257 melanoma
[45] = system: SF-295 CNS
[46] = system: K-562 leukemia
[47] = system: IGROV1 ovarian
[48] = system: HCC-2998 colon
[49] = system: BT-549 breast
[50] = system: SN12C renal
[51] = system: SR leukemia
[52] = system: SK-MEL-2 melanoma
[53] = system: SNB-19 CNS
[54] = system: MCF7 breast
[55] = system: A498 renal
[56] = system: HT29 colon
[57] = system: EKVX NSCLC
[58] = system: KM12 colon

`C=C1CCC2C3(C)COC(c4ccc(NC(C)=O)cc4)OC3CCC2(C)C1C/C=C1/C(=O)OCC1O` (stereo unspecified) was tested, and the GI50 [1] was 7.76 µM, the TGI [1] was over 100 µM and the GI50 [2] was over 100 µM. It also gave a TGI [2] of over 100 µM, a GI50 [3] of over 100 µM and a TGI [3] of over 100 µM. It also gave a GI50 [4] of over 100 µM, a TGI [4] of over 100 µM and a GI50 [5] of 21 µM. The TGI [5] was over 100 µM, the GI50 [6] was 6.81 µM and the TGI [6] was over 100 µM. The GI50 [7] was over 100 µM, the TGI [7] was over 100 µM and the GI50 [8] was 9.58 µM. It also gave a TGI [8] of over 100 µM, a GI50 [9] of over 100 µM and a TGI [9] of over 100 µM. It also gave a GI50 [10] of 5.43 µM, a TGI [10] of over 100 µM and a GI50 [11] of 3.57 µM. The TGI [11] was over 100 µM, the GI50 [12] was 46.9 µM and the TGI [12] was over 100 µM. The GI50 [13] was 4.53 µM, the TGI [13] was over 100 µM and the GI50 [14] was 2.32 µM. The TGI [14] was 24.9 µM, the GI50 [15] was 8.8 µM and the TGI [15] was over 100 µM. The GI50 [16] was 5.13 µM, the TGI [16] was over 100 µM and the GI50 [17] was 4.22 µM. The TGI [17] was over 100 µM, the GI50 [18] was 64.3 µM and the TGI [18] was over 100 µM. It also gave a GI50 [19] of over 100 µM, a TGI [19] of over 100 µM and a GI50 [20] of 79 µM. It also gave a TGI [20] of over 100 µM, a GI50 [21] of 7.37 µM and a TGI [21] of over 100 µM. The GI50 [22] was over 100 µM, the TGI [22] was over 100 µM and the GI50 [23] was 3.08 µM. It also gave a TGI [23] of over 100 µM, a GI50 [24] of 6.25 µM and a TGI [24] of over 100 µM. For the same molecule, the GI50 [25] was 2.53 µM, the TGI [25] was over 100 µM and the GI50 [26] was 0.985 µM. It also gave a TGI [26] of 8.32 µM, a GI50 [27] of 4.71 µM and a TGI [27] of over 100 µM. It also gave a GI50 [28] of 26.3 µM, a TGI [28] of over 100 µM and a GI50 [29] of 4.7 µM. For the same molecule, the TGI [29] was over 100 µM, the GI50 [30] was 3.39 µM and the TGI [30] was over 100 µM. It also gave a GI50 [31] of 5.96 µM, a TGI [31] of over 100 µM and a GI50 [32] of over 100 µM. It also gave a TGI [32] of over 100 µM, a GI50 [33] of over 100 µM and a TGI [33] of over 100 µM. The GI50 [34] was 5.03 µM, the TGI [34] was over 100 µM and the GI50 [35] was over 100 µM. It also gave a TGI [35] of over 100 µM, a GI50 [36] of over 100 µM and a TGI [36] of over 100 µM. It also gave a GI50 [37] of 7.63 µM, a TGI [37] of over 100 µM and a GI50 [38] of 3.83 µM. For the same molecule, the TGI [38] was over 100 µM, the GI50 [39] was 4.71 µM and the TGI [39] was over 100 µM. It also gave a GI50 [40] of over 100 µM, a TGI [40] of over 100 µM and a GI50 [41] of over 100 µM. For the same molecule, the TGI [41] was over 100 µM, the GI50 [42] was 2.93 µM and the TGI [42] was over 100 µM. It also gave a GI50 [43] of over 100 µM, a TGI [43] of over 100 µM and a GI50 [44] of 6.26 µM. The TGI [44] was over 100 µM, the GI50 [45] was 1.55 µM and the TGI [45] was 6.75 µM. It also gave a GI50 [46] of 2.26 µM, a TGI [46] of over 100 µM and a GI50 [47] of over 100 µM. It also gave a TGI [47] of over 100 µM, a GI50 [48] of 7.75 µM and a TGI [48] of over 100 µM. It also gave a GI50 [49] of 1.86 µM, a TGI [49] of 9.35 µM and a GI50 [50] of over 100 µM. For the same molecule, the TGI [50] was over 100 µM, the GI50 [51] was 2.33 µM and the TGI [51] was 85.1 µM. For the same molecule, the GI50 [52] was 8.12 µM, the TGI [52] was over 100 µM and the GI50 [53] was over 100 µM. The TGI [53] was over 100 µM, the GI50 [54] was 4.58 µM and the TGI [54] was over 100 µM. For the same molecule, the GI50 [55] was over 100 µM, the TGI [55] was over 100 µM and the GI50 [56] was 5.35 µM. It also gave a TGI [56] of over 100 µM, a GI50 [57] of 2.71 µM and a TGI [57] of over 100 µM. For the same molecule, the GI50 [58] was 5.07 µM and the TGI [58] was over 100 µM.

— PubChem BioAssay (NCI)
